Reference: patent US9441006B2, “Polymorph of 2-[4-[(methylamino)carbonyl]-1H-pyrazol-1-yl]adenosine” (Farmak, a.s., priority 2013, dated 2016)
Read-outs that look alike come from different tables or passages of the source. Values belong to the compound of their own block, whether it stands above or below them.

Legend:
[1] = Solubility of polymorph E in water in comparison with polymorph A; format: physicochemical; conditions: at different temperatures
[2] = Dissolution rate in water (Lasentec FBRM particle size distribution measurement); format: physicochemical; conditions: 165 mg in 500 ml water, identical conditions, FIG. 4
Experimental: Equal amounts of both polymorphs (165 mg) were dissolved in the same amounts of water (500 ml) under identical conditions (dissolving regime, stirrer revolutions, etc.). It is obvious that the dissolution rate of polymorph E is approximately twofold. Polymorph E is completely dissolved within about 45 minutes, whereas the same amount of polymorph A is, under same conditions, dissolved after about 90 minutes.

[3] = background art, WO 2008/143667, cited from earlier work
[4] = all known polymorphic forms; cited from earlier work

- solubility in water [1]: practically the same
- dissolution rate in water relative to polymorph A [2]: approximately twofold
- time to complete dissolution in water [2]: about 45 minutes
Structure (SMILES): CNC(=O)c1cnn(-c2nc(N)c3ncn([C@@H]4O[C@H](CO)[C@@H](O)[C@H]4O)c3n2)c1 [polymorph E, 2-[4-[(methylamino)carbonyl]-1H-pyrazol-1-yl]adenosine]

- time to complete dissolution in water ([2]; monohydrate): about 90 minutes
Structure (SMILES): CNC(=O)c1cnn(-c2nc(N)c3ncn([C@@H]4O[C@H](CO)[C@@H](O)[C@H]4O)c3n2)c1 [polymorph A, 2-[4-[(methylamino)carbonyl]-1H-pyrazol-1-yl]adenosine monohydrate]
- stability of the polymorph ([3]; monohydrate): relatively stable

Structure (SMILES): CNC(=O)c1cnn(-c2nc(N)c3ncn([C@@H]4O[C@H](CO)[C@@H](O)[C@H]4O)c3n2)c1 [regadenoson, 2-[4-[(Methylamino)carbonyl]-1H-pyrazol-1-yl]adenosine]
- water solubility [4]: poor water solubility

Structure (SMILES): CNC(=O)c1cnn(-c2nc(N)c3ncn([C@@H]4O[C@H](CO)[C@@H](O)[C@H]4O)c3n2)c1 [Polymorph C, 2-[4-[(methylamino)carbonyl]-1H-pyrazol-1-yl]adenosine]
- stability of the polymorph [3]: converted to unstable forms by heating

Structure (SMILES): CNC(=O)c1cnn(-c2nc(N)c3ncn([C@@H]4O[C@H](CO)[C@@H](O)[C@H]4O)c3n2)c1 [amorphous form, 2-[4-[(methylamino)carbonyl]-1H-pyrazol-1-yl]adenosine]
- stability of the polymorph [3]: unstable
